In patent publication US20210030700A1, “COMPOSITION FOR PREVENTING AND TREATMENT OF SPINAL CORD INJURY” (NEUROBIOGEN CO.,LTD, priority 2018, published 2021):

Legend:
Format in all cases: in vivo, Sprague-Dawley rats
[1] = tested on: spinal cord-injured rats and normal rats; assay: Basso-Beattie-Bresnahan (BBB) locomotor rating behavior test
Experimental: (§1) The animal models of spinal cord injury herein used were adult male Sprague-Dawley rats weighing 180 to 200 g, and the rats were anesthetized by intraperitoneal injection of ketamine. Laminectomy was conducted on the T9 portion to expose the spinal cord, the spinal cord was compressed for 10 seconds using a dedicated forceps (self-closed forceps, Germany) to induce spinal cord injury, and then the muscles and skin were sutured.
(§2) Of the 50 spinal cord injury animal models in total, 5 were a non-drug-administered control group (Normal), 5 were a drug-administered control group (Normal/KDS2010), 20 were a non-drug-administered group subjected to spinal cord injury (SCI), and 20 were a drug-administered group subjected to spinal cord injury (SCI/KDS2010). 2 weeks after induction of spinal cord injury, a mixture of the drug and drinking water was administered at a dose of 10 mg/kg.
A motor function test was performed 10 times in total weekly for 10 weeks after spinal cord injury, and the recovery of hindlimb function in the animals was evaluated using the Basso-Beattie-Bresnahan (BBB) motor score. The BBB score is divided into 21 points in total, and is broadly classified into 3 steps. In the first recovery phase, the degree of the joint movement and whether or not the soles contact the floor was checked, in the second recovery phase, the degree of recovery of weighted gait was monitored, and in the final stage, the balance of the gait and the recovery of the tail were mainly observed. The neuropathic pain response test upon spinal cord injury was conducted through the measurement of a change in mechanical paw withdrawal using a dynamic plantar aesthesiometer and was conducted weekly for 3 weeks after the injury causing response to the soles. This test was conducted by applying a force of 0 to 50 g to the sole of the paw of the hindlimb using a needle with a diameter of 0.5 mm for 20 seconds. At this time, the force applied when the sole withdrawal occurred due to pain was measured.
A behavior test was performed using a Basso-Beattie-Bresnahan (BBB) locomotor rating system after administration of KDS2010 to spinal-cord-injured rats and normal rats in the same manner as in Example 1-3 above. The result of the behavior test was expressed as a BBB score.

[2] = tested on: spinal cord-injured rats and normal rats; assay: Pain response evaluation using a dynamic plantar test
Experimental: as §1, with “sutured. […]” for “sutured.”
A motor function test was performed 10 times in total weekly for 10 weeks after spinal cord injury, and the recovery of hindlimb function in the animals was evaluated using the Basso-Beattie-Bresnahan (BBB) motor score. […] In the first recovery phase, the degree of the joint movement and whether or not the soles contact the floor was checked, in the second recovery phase, the degree of recovery of weighted gait was monitored, and in the final stage, the balance of the gait and the recovery of the tail were mainly observed. […] At this time, the force applied when the sole withdrawal occurred due to pain was measured.
A pain relief degree was measured using a pain response evaluation based on a dynamic plantar test after administration of KDS2010 to spinal-cord-injured rats and normal rats in the same manner as in Example 1-3 above.

[3] = tested on: spinal cord-injured rats and normal rats; assay: EC staining of the injured area (T9), myelination of spinal cord tissue
Experimental: as §1, §2
For EC staining (Eriochrome (Solochrome) cyanine staining), spinal cord tissue was obtained at 10 weeks after spinal cord injury, fixed with 4% paraformaldehyde, and dehydrated to perform freeze embedding. EC staining was performed on the injured area (thoracic vertebrae #9, T9) in 5 rats for the control group, 10 rats for the spinal cord-injured non-drug-administered group and 10 rats for the spinal cord-injured drug-administered group.
The EC staining is a staining method that can compare the areas of tissue and the myelinated part between groups because the myelinated part is stained in blue, whereas other nuclei, nerves, and non-myelinated parts appear in white.
EC staining was conducted on the injured area (thoracic vertebrae #9, T9) of the non-drug-administered control group, the drug-administered control group, the spinal cord-injured non-drug-administered group and the spinal cord-injured drug-administered group, in the same manner as in Example 1-4, and the results of myelinated parts were quantified.

[4] = tested on: spinal cord injury model; assay: Toluidine blue (TB) staining and TEM imaging, re-myelination of spinal cord injury site; details: spinal cord injury model treated with KDS2010
Experimental: as §1
Specifically, the number of […], the number of cavities and a g-ratio were measured through toluidine blue (TB) staining and TEM imaging.

[5] = tested on: spinal cord injury model; assay: BrdU immunofluorescence staining of spinal nerves, formation of new nerve cells; details: spinal cord injury model treated with KDS2010; BrdU 50 mg/kg/day i.p.
Experimental: as §1
A test to determine whether or not treatment with KDS2010 has an effect of inducing differentiation of new nerve cells was conducted in order to investigate the effect of spinal cord regeneration.
Specifically, BrdU was administered at a dose of 50 mg/kg/day to test animals by i.p. injection one week before scarification, and spinal nerves were subjected to immunofluorescence staining and then observed.

[6] = tested on: spinal cord injury model; assay: Immunofluorescence staining for macrophage marker CD68 and microglia marker Ibal; details: KDS2010-administered spinal cord injury model group
Experimental: as §1
When a spinal cord injury occurs, destroyed cells and cell clusters were observed inward from the injured site. These cells may cause an inflammatory reaction and interfere with regeneration from spinal cord injury. A test was conducted to investigate the effect of the drug KDS2010 on inflammatory reaction.
Specifically, the spinal cord injury model administered with KDS2010 was subjected to immunofluorescence staining to determine whether or not the cells were positive for the macrophage marker CD68 and the microglia marker Ibal.

[7] = SCI/KDS2010 vs SCI, 10 weeks after injury
[8] = drug-administered control group (Control/KDS2010), 10 weeks

SMILES: C[C@H](NCc1ccc(-c2ccc(C(F)(F)F)cc2)cc1)C(N)=O [KDS2010, (S)-2-(((4′-trifluoromethylbiphenyl-4-yl)methyl)amino)propanamide methanesulfonate]
- gait and behavioral function in BBB test ([1]; SCI/KDS2010, last week (10 weeks after injury)): balanced gait and restored behavioral function
- BBB score compared to spinal cord-injured group not administered with the drug ([1]; SCI/KDS2010 vs SCI): significantly improved
- BBB score ([1]; drug-administered control group (Normal/KDS2010), normal rats, 10 mg/kg in drinking water): 21 points
- BBB score ([1]; spinal cord-injured drug-administered group (SCI/KDS2010), 10 mg/kg in drinking water from 2 weeks after injury, starting at 5 weeks): ≥ 10 points
- threshold value for pain compared to spinal cord-injured non-drug-administered group ([2]; SCI/KDS2010 vs SCI): significantly increased
- threshold value for pain ([2]; drug-administered control group (Normal/KDS2010), normal rats): high threshold value
- total myelinated area compared to spinal cord-injured non-drug-administered group [3, 7]: increased
- total tissue area compared to spinal cord-injured non-drug-administered group [3, 7]: increased
- proportion of the total myelinated area to the total tissue area [3, 8]: large
- total myelinated area [3, 8]: large
- total tissue area [3, 8]: large
- number of cavities [4]: rapidly decreased
- number of myelinated exons [4]: recovered to an almost normal value
- g-ratio ([4]; normal range 0.79±0.0005): within the normal range
- formation of new nerve cells [5]: exhibited newly formed nerve cells
- number of cells positive to CD68 [6]: significantly decreased
- number of cells positive to Ibal [6]: significantly decreased
